# Source: patent publication US9132104B2, “Fortification of nutritional products with olive extracts containing hydroxytyrosol and hydroxytyrosol fortified nutritional products” (PROBELTE PHARMA S.A., priority 2007, dated 2015)
# Test system: male Sprage Dawley rats
# Assay: L-NAME induced hypertension model, arterial blood pressure by tail-cuff method (Example 11)
# Assay type: in vivo
# Details: rat, L-NAME 40 mg/Kg in drinking water, oral gavage 100 mg/Kg (group 6, positive control)
# Experimental: Thirty-six male Sprage Dawley rats (weight aprox. 200 at the beginning of the experiment) were obtained from Harlan Interfauna Iberica SA (Barcelona, Spain) and maintained during all the experiment in the installations of the animalary service at the University of Murcia. The animals were randomly distributed into six experimental groups of 6 rats each one, housed under standard conditions of lighting (day/night cycles of 12 h), temperature (22±2° C.) and humidity (60%).
# During the setting period and the experimental periods, rats were feed on a solid standard diet for rats (Panlab). Drinking water and food were available ad libitum. After an setting period of 7 days, treatments according the experimental design were started.
# In order to determine the effect of fortified extra virgin olive oil (evoo added with the olive extract according to the present invention) N-nitro-L-arginine-methylester (L-NAME) induced hypertension model was used.
# Arterial blood pressure was measured with a periodicity according the above cronogramme, by the tail-cuff method. Before the measurement, rats were kept at 37° C. for 10 min to make the pulsations of the tail artery detectable. […] The arterial blood pressure measurements were performed at the same time of the day in order to avoid any influence of the circadian cycle.
structure (smiles),measurement,value
C[C@H](CS)C(=O)N1CCC[C@H]1C(=O)O [Captopril],systolic blood pressure,significant reduction of the blood pressure values
